Literature values as cited in patent US20150025027A1 (PHARTRIALS PERQUISAS FARMACÊUTICAS LTDA, priority 2012, published 2015).
Converted amounts (≈) assume the structure as drawn.

Experiments:
[1] = not given; remark: listed apart in the source
[2] = not given; remark: listed apart in the source
[3] = not given; remark: listed apart in the source
[4] = high-risk, obese population; vs. 10% in comparison group

Row | Compound | solubility in water | log P [1] | half-life ([2]; in vivo) | weight loss in humans [3] | time to peak plasma concentration ([2]; after oral administration) | time to plasma concentrations in the state of equilibrium ([2]; days of treatment) | share of the dose administered per metabolite ([2]; each of six metabolites) | dose metabolized ([2]; forming six metabolites) | dose administered eliminated through the urine ([2]; in vivo) | oral bioavailability ([2]; oral) | cardiovascular outcomes (AMI, CVA, cardiorespiratory failure or death) in patients receiving the drug [4]
1 | CC(NC(C)(C)C)C(=O)c1cccc(Cl)c1 (stereo not shown) [Bupropion, 1-(3-chlorophenyl)-2-{(1,1-dimethyl)-amino]-1-propanone] | 312 mg/mL (≈ 1300 mM) | 3.6 | 24 h |  |  |  |  |  |  |  | 
2 | CC1(C)OC2CO[C@@]3(COS(N)(=O)=O)OC(C)(C)O[C@H]3C2O1 (stereo partly shown) [Topiramate] | 9.8 mg/mL (≈ 28.9 mM) | −0.7 |  | effective in weight loss | 2 h | 4 days | ≤ 5% | 30% | 70% | 80% | 
3 | CC(C)CC(N(C)C)C1(c2ccc(Cl)cc2)CCC1 (stereo not shown) [sibutramine] |  |  |  |  |  |  |  |  |  |  | 11.4%
